Molecular target: T1, ArpA (Streptomyces griseus, UniProt Q9ZN78)
T1 sequence (Q9ZN78 1-276): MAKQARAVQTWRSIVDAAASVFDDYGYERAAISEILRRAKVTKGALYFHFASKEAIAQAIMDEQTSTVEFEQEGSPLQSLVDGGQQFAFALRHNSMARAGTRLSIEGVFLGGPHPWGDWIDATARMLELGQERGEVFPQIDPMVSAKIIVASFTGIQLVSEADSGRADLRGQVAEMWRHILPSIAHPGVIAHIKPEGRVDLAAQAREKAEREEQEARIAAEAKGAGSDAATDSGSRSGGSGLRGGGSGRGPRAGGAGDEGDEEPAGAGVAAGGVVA
Assay: E. coli pTOTAL biosensor, GFP derepression dose-response
Assay type: cell-based

Row | Compound | EC50 [µM]
1 | CC(C)CCCC[C@@H](O)[C@@H]1C(=O)OC[C@H]1CO [SCB1] | 18.1
2 | CC(C)CCCCC(=O)C1C(=O)OC[C@H]1CO (some centres unmarked) [A-factor] | 0.39

From paper doi:10.1101/2025.09.05.673737v1 (biorxiv, 2025)
